Paper PMC12064818, “A general assay platform to study protein pharmacology using ligand-dependent structural dynamics” (Nature Communications, 2025)

Each molecule was assayed against T1, FLuc-C-HiBiT (Photinus pyralis, UniProt P08659) (assay: biochemical). Details: enzyme activity, 10 uM ATP; read-out: IC50 or SDR50 (mM) / FLuc E.
T1 construct: firefly luciferase with C-terminal HiBiT tag, E. coli expressed
Method: The enzyme activity of FLuc-N-HiBiT, FLuc-C-HiBiT, and FLuc-C-NLuc was measured similar to P. pyralis firefly luciferase (FLuc) as previously described. […] Compounds and controls were added to each plate as described in Supplementary Data 8 with a Hornet pintool system (Wako Automation). Compounds were incubated with respective enzymes for 30–60 min at room temperature protected from light and covered by solid metal lid to prevent evaporation. […] Luciferin was incubated with FLuc enzyme for 5 min before FLuc activity was then measured on a ViewLux CCD imager (PerkinElmer), with exposure times up to ten seconds with medium to high gain settings. Data were normalized to average no enzyme control as 100% enzyme inhibition and average DMSO neutral control. See Supplementary Table 4 for additional details. As a proof-of-concept target, we appended the sensor protein or corresponding α-peptide to either the N- or C-terminus of the target protein firefly luciferase (FLuc), an ATP cofactor-dependent monooxygenase (Supplementary Fig. 1a) having a broad, well-characterized and accessible ligand pharmacology. For initial characterization of the SDR concept, either NLuc or the 11 amino acid HiBiT tag (α-peptide) and complementary 18 kDa LgBiT subunit (ω-fragment), which self-assemble to reconstitute functional NLuc enzyme[24] were tested. In contrast to the ATP-dependent bioluminescent FLuc enzyme, NLuc generates a bright bioluminescence in an ATP-independent manner from the direct oxidation of furimazine (Supplementary Fig. 1b). […] Next, FLuc-C-NLuc, FLuc-N-HiBiT or FLuc-C-HiBiT were assayed with the same inhibitor in an SDR assay format by monitoring bioluminescence from NLuc or its reconstitution by α-complementation with LgBiT. Measurements of NLuc activity were made either in the absence or presence of the FLuc ATP cofactor, as NLuc bioluminescence is ATP-independent.

T1 sequence (P08659 whole entry, looked up): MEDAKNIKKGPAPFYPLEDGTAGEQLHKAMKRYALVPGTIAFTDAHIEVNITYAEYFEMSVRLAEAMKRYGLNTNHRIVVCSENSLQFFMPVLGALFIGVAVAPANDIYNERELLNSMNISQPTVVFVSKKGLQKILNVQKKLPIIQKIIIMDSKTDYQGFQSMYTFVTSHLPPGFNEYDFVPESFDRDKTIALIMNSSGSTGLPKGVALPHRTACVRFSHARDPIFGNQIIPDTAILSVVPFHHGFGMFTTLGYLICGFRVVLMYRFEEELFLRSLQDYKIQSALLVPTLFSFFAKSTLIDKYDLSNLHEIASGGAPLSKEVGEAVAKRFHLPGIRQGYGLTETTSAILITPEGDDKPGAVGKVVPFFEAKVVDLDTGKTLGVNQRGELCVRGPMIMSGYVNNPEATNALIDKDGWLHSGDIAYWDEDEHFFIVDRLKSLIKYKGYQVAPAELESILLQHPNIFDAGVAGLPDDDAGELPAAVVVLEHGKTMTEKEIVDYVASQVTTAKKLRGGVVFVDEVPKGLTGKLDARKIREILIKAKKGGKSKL

| IC50 [µM] | Structure (SMILES) |
| --- | --- |
| 16.1 | CC(=O)Nc1cccc(-c2cc3c(cn2)CN(Cc2ccccc2)CCN3)c1 [NCGC00411143-01] |
| 11.1 | Cc1ccc(NC(=O)N2CCC(CCNC(=O)c3ccc(F)cc3)CC2)cc1F [NCGC00425047-01] |
| > 30 | Nc1ncnc2c1ncn2[C@H]1O[C@H](CO)[C@@H](O)[C@@H]1O [NCGC00262556-01] |
| 12.4 | O=C(O)c1ccc(-c2noc(-c3ccccc3C(F)(F)F)n2)cc1 [NCGC00168105-01] |
| 9.89 | CC(C)CCNC(=O)c1ccc2c(c1)nc1n2CCCCC1 [NCGC00133608-01] |
| 14 | CCn1cc(-c2ccc(OC)cc2)cc1C(=O)O [NCGC00432677-01] |
| 11.1 | CCC(C(=O)NCCn1ccn2nc(-c3ccc(OC)cc3)cc2c1=O)c1ccccc1 (stereo not shown) [NCGC00456905-01] |
| > 30 | CN1CC(=O)N(C2CCCC2)Cc2c1ncnc2N1CCOCC1 [NCGC00480226-01] |
| 9.89 | CCN1C(=O)CCc2cc(NC(=O)c3ccc(C(C)C)cc3)ccc21 [NCGC00425391-01] |
| 25.4 | Cc1nnn2c(C(=O)NC3CC3)cccc12 [NCGC00477171-01] |
| > 30 | CCC(=O)Nc1cc(-c2nc3ccccc3s2)c(Cl)cc1Cl [NCGC00103217-01] |
| > 30 | COc1cc(C(=O)Nc2cc(C)c(O)c(-c3nc4ccccc4s3)c2)cc(OC)c1OC [NCGC00103336-02] |
| 8.81 | CCOC(=O)c1cccc(NC(=O)CCc2c(C)nc3cc(-c4ccc(Cl)cc4)nn3c2C)c1 [NCGC00110030-01] |
| 8.81 | CC(C)(Oc1ccc(-c2nc3cc(Cl)ccc3s2)cc1)C(=O)O [NCGC00386771-01] |
| 6.24 | CC1CCN(c2ncnc3c2cnn3-c2ccccc2)CC1 [NCGC00081403-02] |
| 8.81 | COc1cccc(CC(=O)NCCn2ccn3nc(-c4ccc(C)cc4C)cc3c2=O)c1 [NCGC00456960-01] |
| 4.95 | COCCNC(=O)C1CCN(C(=O)c2nnn3c2COC(c2ccc(C)cc2)C3)CC1 (stereo not shown) [NCGC00449559-01] |
| 11.1 | CC(C)c1ccc(N2C(=S)N[C@H]3[C@@H](O)[C@H](O)C[C@@H](C(=O)N(C)Cc4ccccc4)[C@H]32)cc1 [NCGC00391233-01] |
| 4.95 | CCOC(=O)N1CCc2c(sc(NCc3sccc3C)c2C(=O)Nc2ccc(OC)cc2OC)C1 [NCGC00140803-01] |
| 8.81 | Cc1ccc(NC(=O)N2CCCC(c3noc(COc4ccccc4)n3)C2)cc1C (stereo not shown) [NCGC00453299-01] |
| 7 | Clc1ccc(OCc2nc3ccccc3n2Cc2ccccc2)c(Cl)c1 [NCGC00098959-01] |
| 3.51 | C[C@H](C(=O)N1CCOCC1)C1CC[C@@]2(C)Cc3sc(-c4ccccc4)nc3[C@@H](C)[C@@H]2[C@H]1O (stereo partly shown) [NCGC00421021-01] |
| 11.1 | Cc1c(-c2ccc(F)cc2)[nH]c2ccc(CNC(=O)CN3CCOC3=O)cc12 [NCGC00442659-01] |
| 12.4 | Cc1c(CCNC(=O)c2ccc(Br)o2)sc2nc(-c3ccc(Cl)cc3)nn12 [NCGC00137117-01] |
| 20.2 | O=C1N(c2ccccc2)C[C@H]2CN(Cc3ccccc3)CCN12 [NCGC00393129-01] |
| 8.81 | CC1CCCCN1c1csc2ccc(F)cc2c1=O (stereo not shown) [NCGC00132384-01] |

| IC50 [µM] | Structure (SMILES) |
| --- | --- |
| 6.24 | COc1cccc(Nc2nc(-c3ccccc3)no2)c1 [NCGC00422289-01] |
| 9.89 | Cc1cccc(NC(=O)c2c(N)sc3c2CCC(C)C3)c1 (stereo not shown) [NCGC00099772-01] |
| > 30 | COc1ccc(C(=O)Nc2ccccc2-c2nc3ccccc3s2)cc1OC [NCGC00102625-01] |
| 14.3 | O=C1c2cnc(-c3ccc(F)cc3)nc2OCCN1CC1CC1 [NCGC00413585-01] |
| 14.3 | C[S+](=O)([O-])CCn1ncc2cc(OCc3cccc(-c4ccccc4O)c3)ccc21 [NCGC00418051-01] |
| 18 | COc1ccc(CN2CCNc3cc(Nc4ccccc4)ncc3C2)cn1 [NCGC00411080-01] |
| 0.394 | OCC1CCCN(c2ncnc3c2cnn3-c2ccccc2)C1 (stereo not shown) [NCGC00624837-01] |
| 7 | Fc1cccc(Nc2nc(-c3ccccc3)no2)c1 [NCGC00422294-01] |
| > 30 | Cc1cccc(CCNC(=O)c2sc3nc4n(c(=O)c3c2C)CCCC4)c1 [NCGC00121158-01] |
| 17.6 | N#C/C(=C\c1ccc(-c2cc(Cl)ccc2Cl)o1)C(=O)Nc1ccccc1C(=O)O [NCGC00098944-01] |
| 0.7 | Cc1c(NC(=O)Cc2ccccc2)cccc1-c1nc2ccccc2s1 [NCGC00595047-01] |
| 0.442 | Fc1ccc(Cc2cn3cc(-c4ccccc4)nc3s2)cc1 [NCGC00102102-01] |
| 0.785 | c1ccc(Nc2ncc(-c3ccccc3)o2)cc1 [NCGC00242146-02] |
| > 30 | Oc1cc(-c2nc3ccccc3s2)cc2c1OCCN(Cc1cccn1-c1nccs1)C2 [NCGC00238878-01] |
| 11.1 | COc1ccc(NC(=O)Nc2nnc(C)s2)cc1 [NCGC00106652-01] |
| 0.00881 | CCOc1ccc(NC(=O)Nc2cccc(C(=O)O)c2)cc1 [NCGC00689880-01] |
| 18 | OCc1cccc(-c2cc3c(cn2)CN(Cc2ccccc2)CCN3)c1 [NCGC00411045-01] |
| > 30 | COc1ccc(CN2CCOC[C@H](OCC(=O)N(C)C)C2)cc1 [NCGC00393502-01] |
| 7.18 | CC(=O)NC1(C)CCN(Cc2ccc(-c3ccc4c(ccn4C)c3)cc2)C1 (stereo not shown) [NCGC00410408-01] |
| 16.1 | Cc1cc(-c2cc3c(cn2)CN(Cc2nccn2C)CCN3)ccn1 [NCGC00411046-01] |
| > 30 | Cc1ccc(Cl)cc1-n1nnc(-c2nsc(NC(=O)c3ccccc3Cl)n2)c1C [NCGC00105211-01] |
| 7 | COc1cccc(NC(=O)CCc2nc(-c3ccc(C(C)(C)C)cc3)no2)c1 [NCGC00115609-01] |
| 6.24 | CC(=O)N1CCc2ccc(C(=O)NC3CCCCCC3)cc21 [NCGC00430256-01] |
| 8.81 | Cc1ccc(NC(=O)c2ccc3snnc3c2)cc1C [NCGC00114783-01] |
| 0.624 | Nc1ccc2nc(-c3ccc(O)cc3)sc2c1 [NCGC00098122-01] |
| 12.4 | CCOc1ccc2nc(N3CCN(C(=O)c4ccco4)CC3)sc2c1 [NCGC00137033-01] |

| IC50 [µM] | Structure (SMILES) |
| --- | --- |
| 11.1 | O=C(c1ccccn1)N1CCC(Oc2ccc(-c3noc(-c4ccccc4)n3)cc2)C1 (stereo not shown) [NCGC00441001-01] |
| 11.1 | Cc1ncccc1C(=O)N1CCC(Oc2ccc(-c3noc(-c4ccccc4)n3)cc2)C1 (stereo not shown) [NCGC00440997-01] |
| 1.57 | COc1ccc(-c2cn3nc(SCC(=O)Nc4ccccc4F)ccc3n2)cc1 [NCGC00134464-01] |
| > 30 | COc1ccc(C(=O)Nc2cc([S+](=O)([O-])c3ccc(Cl)cc3)c(O)c(C)c2C)cc1 [NCGC00102574-01] |
| 7 | O=C(O)c1ccc(-c2noc(-c3cccc(Cl)c3)n2)cc1 [NCGC00168100-03] |
| 3.13 | CCOC(=O)N1CCc2c(sc(NCc3cccs3)c2C(=O)Nc2ccc(OC)cc2OC)C1 [NCGC00140799-01] |
| 0.556 | Nc1cccc(-c2ccc(N3CCCCC3)nn2)c1 [NCGC00432709-01] |
| > 30 | Nc1nc2c(ncn2COCCO)c(=O)[nH]1 [NCGC00015061-13] |
| > 30 | CCSc1ccccc1C(=O)Nc1ccc(-c2nc3ccccc3s2)c(O)c1 [NCGC00134162-01] |
| 11.1 | CN(CCc1ccccn1)c1ccc(-c2nc(COc3ccccc3)no2)cn1 [NCGC00426301-01] |
| 12.4 | CCNc1cc(N2CCC(CCC(=O)Nc3ccc4c(c3)OCCO4)CC2)ncn1 [NCGC00470231-01] |
| 20.2 | Cc1nn(-c2ccc(C(C)(C)C)cc2)c(C)c1[C@@H]1C=C[C@@H](NC(=O)COCC(=O)O)C1 [NCGC00400262-01] |
| 6.24 | Cc1ccc(NC(=O)c2ncoc2-c2ccco2)cc1Cl [NCGC00131543-01] |
| 20.2 | COc1cccc(Nc2ccc(CN3CCC(C)(NC(C)=O)C3)cc2)c1 (stereo not shown) [NCGC00410471-01] |
| > 30 | Cc1ccc(-c2ncc3c(n2)OCCN(Cc2ccc(F)cc2F)C3=O)cc1 [NCGC00413538-01] |
| 9.89 | COc1ccc(-c2ccc3c(c2)C(=O)N2CC[C@H](NC(=O)c4cccc(F)c4)[C@H]2C(=O)N3)cc1 [NCGC00399389-01] |
| 4.95 | O=C(O)c1ccc(-c2noc(-c3cccc(F)c3)n2)cc1 [NCGC00168097-02] |
| 12.4 | CCOC(=O)c1ccc(NC(=O)CSc2nnc(CNC(=O)c3ccc(OC)cc3)n2CC)cc1 [NCGC00110413-01] |
| 2.79 | Cc1cc(F)ccc1NC(=O)c1csc2c1CCC(C)C2 (stereo not shown) [NCGC00112512-01] |
| 11.1 | Cc1ccc(-n2ncc3c(N4CCCC(C)C4)ncnc32)c(C)c1 (stereo not shown) [NCGC00081401-03] |
| > 30 | CC(C)(Oc1nn(CC2CC2)c2ccc(CN3CCCC3)cc12)C(=O)NC1CCOCC1 [NCGC00419513-01] |
| > 30 | Cc1ccc2nc(-c3ccc(NC(=O)COc4ccc(Cl)c(C)c4)cc3)sc2c1 [NCGC00098204-01] |
| 9.89 | CN1CCCCCCN(C(=O)Nc2ccc3c(c2)OCCO3)CCC1=O [NCGC00466735-01] |
| > 30 | Cc1cccc(CNC(=O)Cc2csc3ccccc23)c1 [NCGC00113581-01] |
